Measurements taken from patent US20110124588A1, “SYNERGISTIC ACTIVE INGREDIENT COMBINATIONS” (Bayer Cropscience AG, priority 2008, published 2011).
Read-outs that look alike come from different tables or passages of the source.

Key:
[1] = test system: Myzus persicae; assay: Myzus persicae test (spray treatment of infested cabbage leaves); assay type: in vivo, green peach aphid (Myzus persicae); details: for pest or weed control at 0.8 g/ha / pest or weed control at 4 g/ha / pest or weed control at 0.032 g/ha / pest or weed control at 0.16 g/ha / pest or weed control at 0.0064 g/ha: Myzus persicae
Procedure: (§1) If the actual kill rate exceeds the calculated value, the kill of the combination is superadditive, i.e. a synergistic effect is present. In this case, the actually observed kill rate must exceed the value calculated using the above formula for the expected kill rate (E).
(§2) solvents: 78 parts by weight of acetone • • 1.5 parts by weight of dimethylformamide emulsifier: 0.5 part by weight of alkylaryl polyglycol ether
After the desired period of time, the kill in % is determined 100% means that all aphids have been killed; 0% means that none of the aphids have been killed. The kill rates determined are entered into Colby's formula.

[2] = test system: Phaedon cochleariae; assay: Phaedon cochleariae larvae test (sprayed cabbage leaves); assay type: in vivo, mustard beetle (Phaedon cochleariae) larvae; details: for pest or weed control at 20 g/ha / pest or weed control at 0.8 g/ha / pest or weed control at 4 g/ha / pest or weed control at 0.16 g/ha / pest or weed control at 100 g/ha: Phaedon cochleariae
Procedure: as §1
Solvents: 78 parts by weight of acetone • • 1.5 parts by weight of dimethylformamide Emulsifier: 0.5 part by weight of alkylaryl polyglycol ether
After the desired period of time, the kill in % is determined 100% means that all beetle larvae have been killed; 0% means that none of the beetle larvae have been killed. The kill rates determined are entered into Colby's formula.

[3] = test system: Spodoptera frugiperda; assay: Spodoptera frugiperda larvae test (sprayed cabbage leaves); assay type: in vivo, army worm (Spodoptera frugiperda) larvae
Source text: (§3) The expected activity of a given combination of two active compounds can be calculated as follows, according to S. R. Colby, Weeds 15 (1967), 20-22:
(§4) X is the kill rate, expressed as a percentage of the untreated control, when employing active compound A at an application rate of m g/ha or in a concentration of m ppm, Y is the kill rate, expressed as a percentage of the untreated control, when employing active compound B at an application rate of n g/ha or in a concentration of n ppm and E is the kill rate, expressed as a percentage of the untreated control, when employing active compounds A and B at application rates of m and n g/ha or in a concentration of m and n ppm, then
as §1, §2
(§5) To produce a suitable preparation of active compound, 1 part by weight of active compound is mixed with the stated amounts of solvents and emulsifier, and the concentrate is diluted with emulsifier-containing water to the desired concentration.
Cabbage leaves (Brassica oleracea) are treated by spraying with the active compound preparation of the desired concentration and are populated with larvae of the army worm (Spodoptera frugiperda) while the leaves are still moist.
After the desired period of time, the kill in % is determined 100% means that all caterpillars have been killed; 0% means that none of the caterpillars have been killed. The kill rates determined are entered into Colby's formula.

[4] = test system: Tetranychus urticae; assay: Tetranychus urticae test (OP-resistant/spray treatment); assay type: in vivo, greenhouse red spider mite (Tetranychus urticae); details: Tetranychus urticae, 144 h; single active compound, 0.8 g/ha, after 6 d; read-out: Kill in % after 6 d
Source text: as §3, §4, §1, §2, §5
Discs of bean leaves (Phaseolus vulgaris) which are infested by all stages of the greenhouse red spider mite (Tetranychus urticae) are sprayed with an active compound preparation of the desired concentration.
After the desired period of time, the activity in % is determined 100% means that all spider mites have been killed; 0% means that none of the spider mites have been killed.

[5] = 24 h, read-out: Kill in % after 1 d
[6] = 144 h, single active compound, 6 d, read-out: Kill in % after 6 d
[7] = Spodoptera frugiperda, 144 h, read-out: Kill in % after 6 d
[8] = 144 h, read-out: Kill in % after 6 d
[9] = Spodoptera frugiperda, 48 h, read-out: Kill in % after 2 d
[10] = 144 h, single active compound, 0.8 g/ha, 6 d, read-out: Kill in % after 6 d
[11] = 144 h, single active compound, 4 g/ha, 6 d, read-out: Kill in % after 6 d
[12] = 48 h, single active compound, 4 g/ha, 2 d, read-out: Kill in % after 2 d
[13] = 48 h, single active compound, 2 d, read-out: Kill in % after 2 d
[14] = single active compound, 0.8 g/ha, 6 d

In the case of `Cc1cc(C(F)(C(F)(F)F)C(F)(F)F)ccc1NC(=O)c1cccc(I)c1C(=O)NC(C)(C)CS(C)(=O)=O` [flubendiamid, flubendiamide], the pest or weed control at 0.8 g/ha [1, 5] is reported as 0%, the pest or weed control at 4 g/ha [1, 5] is reported as 0% and the pest or weed control at 20 g/ha [2, 6] is reported as 50%. The pest or weed control at 0.8 g/ha [3, 7] was 67%.
In the case of `CNC(=O)c1cc(Cl)cc(C)c1NC(=O)c1cc(Br)nn1-c1ncccc1Cl` [Rynaxapyr, Chlorantraniliprole], the pest or weed control at 0.032 g/ha [1, 8] is reported as 0% and the pest or weed control at 0.16 g/ha [3, 9] is reported as 33%.
Work on `Nc1nc(N)nc(NC2CC2)n1` [cyromazine] yielded a pest or weed control at 0.16 g/ha [1, 8] of 0%, a pest or weed control at 0.8 g/ha [1, 8] of 0% and a pest or weed control at 20 g/ha [2, 6] of 0%.
`CN1COCN(Cc2cnc(Cl)s2)/C1=N/[N+](=O)[O-]` [thiamethoxam] showed a pest or weed control at 0.0064 g/ha [1, 8] of 0%, a pest or weed control at 0.032 g/ha [1, 8] of 0% and a pest or weed control at 0.8 g/ha [2, 10] of 0%.
`O=[N+]([O-])/N=C1\NCCN1Cc1cnc(Cl)s1` [imidaclothiz] gave a pest or weed control at 4 g/ha [2, 11] of 0%.
`Cc1cc(C)c([S+]([O-])CC(F)(F)F)cc1-n1cnc(C(F)(F)F)n1` (centres unmarked) [II-29-31, 1-{2,4-dimethyl-5-[(2,2,2-trifluoroethyl)sulphinyl]phenyl}-3-(trifluoromethyl)-1H-1,2,4-triazole] gave a pest or weed control at 0.8 g/ha [4] of 60%.
With `CC1(C)C(/C=C(\Cl)C(F)(F)F)C1C(=O)OC(C#N)c1cccc(Oc2ccccc2)c1` (centres unmarked) [lambda-cyhalothrin] the pest or weed control at 0.0064 g/ha [1, 8] was 0%, the pest or weed control at 0.032 g/ha [1, 8] was 0% and the pest or weed control at 0.16 g/ha [2, 6] was 17%. For the same compound, the pest or weed control at 0.8 g/ha [3, 7] was 67%.
Compound `COC(=O)N(C(=O)N1COC2(C(=O)OC)Cc3cc(Cl)ccc3C2=N1)c1ccc(OC(F)(F)F)cc1` (centres unmarked) [indoxacarb] has a pest or weed control at 0.8 g/ha [1, 8] of 0%, a pest or weed control at 4 g/ha [2, 12] of 0% and a pest or weed control at 20 g/ha [2, 13] of 33%.
`O=C(NC(=O)c1c(F)cccc1F)Nc1cc(Cl)c(OC(F)(F)C(F)C(F)(F)F)cc1Cl` (centres unmarked) [lufenuron] gave a pest or weed control at 100 g/ha ([2]; 48 h, single active compound, 100 g/ha, 2 d, read-out: Kill in % after 2 d) of 0% and a pest or weed control at 100 g/ha [3, 9] of 0%.
milbemectin was tested, and the “Kill in % after 6 d” value [2, 14] was 0% and the “Kill in % after 6 d” value [3, 14] was 0%.
In the case of `CC1(C)C(C=C(Cl)Cl)C1C(=O)OC(C#N)c1cccc(Oc2ccccc2)c1` (stereo not drawn) [alpha-cypermethrin], the pest or weed control at 0.0064 g/ha [1, 8] is reported as 0%, the pest or weed control at 0.16 g/ha [2, 6] is reported as 0% and the “Kill in % after 2 d” value ([2]; single active compound, 0.8 g/ha, 2 d) is reported as 0%.
In the case of `N#CCNC(=O)c1cnccc1C(F)(F)F` [flonicamid], the pest or weed control at 0.8 g/ha [1, 5] is reported as 0%, the pest or weed control at 4 g/ha [1, 5] is reported as 20% and the pest or weed control at 0.032 g/ha [1, 8] is reported as 0%. For the same compound, the pest or weed control at 20 g/ha [2, 13] was 0%, the pest or weed control at 0.8 g/ha [2, 10] was 0% and the pest or weed control at 100 g/ha ([2]; 144 h, single active compound, 100 g/ha, 6 d, read-out: Kill in % after 6 d) was 0%.
`C/C(=N\C#N)N(C)Cc1ccc(Cl)nc1` [acetamiprid] was tested, and the pest or weed control at 0.032 g/ha [1, 8] was 0%.
`CC1(C)C(C=C(Cl)Cl)C1C(=O)OC(C#N)c1ccc(F)c(Oc2ccccc2)c1` (stereo not drawn) [β-cyfluthrin, betacyfluthrin] was tested, and the pest or weed control at 0.0064 g/ha [1, 8] was 0%, the pest or weed control at 0.032 g/ha [1, 8] was 0% and the pest or weed control at 0.16 g/ha [2, 6] was 0%. It also gave a pest or weed control at 0.16 g/ha [3, 7] of 0%.
For `O=[N+]([O-])/N=C1\NCCN1Cc1ccc(Cl)nc1` [imidacloprid], the pest or weed control at 0.16 g/ha [1, 5] was 50%, the pest or weed control at 4 g/ha [2, 12] was 0% and the pest or weed control at 4 g/ha [2, 11] was 0%. The pest or weed control at 20 g/ha [2, 6] was 50%.
In the case of pyridaben, the “Kill in % after 6 d” value [1, 14] is reported as 0% and the “Kill in % after 6 d” value ([2]; single active compound, 4 g/ha, 6 d) is reported as 50%.
For `COP(=O)(NC(C)=O)SC` (centres unmarked) [acephate], the pest or weed control at 100 g/ha [2, 8] was 0%.
With `N#Cc1ccc(CC(=NNC(=O)Nc2ccc(OC(F)(F)F)cc2)c2cccc(C(F)(F)F)c2)cc1` (mixture of isomers) [metaflumizone] the pest or weed control at 4 g/ha ([3]; Spodoptera frugiperda, 144 h, single active compound, 4 g/ha, 6 d, read-out: Kill in % after 6 d) was 0%.
